Results: patent US10221197B2, “Phosphatidylinositol 3-kinase inhibitors” (Gilead Sciences, Inc., priority 2014, dated 2019)

Legend:
Format in all cases: biochemical
[1] = target: PI3Kγ (Homo sapiens (Human), UniProt P48736); assay: TR-FRET enzymatic assay of PI3K isoforms (PI3Kγ); conditions: TR-FRET, 2×Km ATP, 2 μM PIP2, PI3Kγ at 2 nM, incubated for 30 minutes at 25° C.; read-out: γ IC50
Procedure: (§1) The compounds of formula (I) were characterized for their enzymatic activity against the PI3K isoforms. Certain compounds of the present application, including certain compounds of formula (II) and (III) were also characterized for their enzymatic activity against PI3K isoforms. The activities were measured using a time-resolved fluorescence resonance energy transfer (TR-FRET) assay.

[2] = target: PI3Kβ (Homo sapiens (Human), UniProt P42338); assay: TR-FRET enzymatic assay of PI3K isoforms (PI3Kβ); conditions: TR-FRET, 2×Km ATP, 2 μM PIP2, incubated for 30 minutes at 25° C.; read-out: β IC50
PI3Kβ, sequence (P42338 whole entry, canonical isoform): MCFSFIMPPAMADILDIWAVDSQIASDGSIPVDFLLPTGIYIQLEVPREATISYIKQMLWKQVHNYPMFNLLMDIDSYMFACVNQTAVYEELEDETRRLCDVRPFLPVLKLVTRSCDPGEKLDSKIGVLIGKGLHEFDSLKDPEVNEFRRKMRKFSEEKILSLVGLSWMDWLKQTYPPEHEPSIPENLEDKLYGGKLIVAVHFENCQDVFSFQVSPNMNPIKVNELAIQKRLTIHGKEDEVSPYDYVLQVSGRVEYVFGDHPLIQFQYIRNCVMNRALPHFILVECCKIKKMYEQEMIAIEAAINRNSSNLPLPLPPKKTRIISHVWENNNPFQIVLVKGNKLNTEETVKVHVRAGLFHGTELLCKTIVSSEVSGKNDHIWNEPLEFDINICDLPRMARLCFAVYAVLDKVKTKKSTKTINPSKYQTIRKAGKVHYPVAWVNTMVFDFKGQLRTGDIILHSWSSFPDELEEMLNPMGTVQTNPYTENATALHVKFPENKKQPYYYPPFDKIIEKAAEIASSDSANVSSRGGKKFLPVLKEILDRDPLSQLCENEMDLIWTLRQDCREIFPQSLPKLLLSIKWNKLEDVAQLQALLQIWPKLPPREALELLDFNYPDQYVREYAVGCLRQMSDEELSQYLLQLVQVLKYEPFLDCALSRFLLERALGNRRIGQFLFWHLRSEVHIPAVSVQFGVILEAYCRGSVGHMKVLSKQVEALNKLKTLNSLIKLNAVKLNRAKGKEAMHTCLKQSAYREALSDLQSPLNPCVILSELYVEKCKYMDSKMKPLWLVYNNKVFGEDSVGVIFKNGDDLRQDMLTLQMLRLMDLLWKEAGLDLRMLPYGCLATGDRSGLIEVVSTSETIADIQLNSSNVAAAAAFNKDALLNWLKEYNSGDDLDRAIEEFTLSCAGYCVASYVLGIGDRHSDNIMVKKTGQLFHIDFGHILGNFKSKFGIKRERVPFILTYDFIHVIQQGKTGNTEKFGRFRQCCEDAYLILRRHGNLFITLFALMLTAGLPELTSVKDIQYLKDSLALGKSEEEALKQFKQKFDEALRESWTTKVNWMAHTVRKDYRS
PI3Kβ, sequence (P27986 whole entry partner, canonical isoform): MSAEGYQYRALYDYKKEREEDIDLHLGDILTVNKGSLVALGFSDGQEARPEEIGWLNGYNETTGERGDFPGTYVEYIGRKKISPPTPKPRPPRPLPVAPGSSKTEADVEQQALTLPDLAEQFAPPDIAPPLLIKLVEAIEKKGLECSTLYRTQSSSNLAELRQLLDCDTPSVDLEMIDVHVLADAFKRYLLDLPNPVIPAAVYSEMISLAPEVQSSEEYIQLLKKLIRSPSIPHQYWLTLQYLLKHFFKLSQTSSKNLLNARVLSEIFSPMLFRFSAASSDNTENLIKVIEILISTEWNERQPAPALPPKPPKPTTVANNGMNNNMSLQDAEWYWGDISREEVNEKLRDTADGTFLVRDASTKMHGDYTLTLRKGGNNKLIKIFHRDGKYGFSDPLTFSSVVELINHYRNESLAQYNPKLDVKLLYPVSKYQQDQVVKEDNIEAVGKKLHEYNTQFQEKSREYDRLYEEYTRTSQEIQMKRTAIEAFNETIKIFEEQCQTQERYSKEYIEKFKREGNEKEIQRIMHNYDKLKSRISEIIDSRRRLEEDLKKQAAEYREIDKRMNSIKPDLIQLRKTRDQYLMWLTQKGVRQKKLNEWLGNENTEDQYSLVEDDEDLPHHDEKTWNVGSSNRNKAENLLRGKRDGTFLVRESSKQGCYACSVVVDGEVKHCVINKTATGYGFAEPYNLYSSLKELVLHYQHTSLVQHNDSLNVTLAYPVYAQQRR
Procedure: as §1

[3] = target: PI3Kδ (Homo sapiens (Human), UniProt O00329); assay: TR-FRET enzymatic assay of PI3K isoforms (PI3Kδ); conditions: 2×Km ATP, 2 μM PIP2, incubated for 30 minutes at 25° C., read-out: δ IC50
PI3Kδ, sequence (O00329 whole entry, canonical isoform): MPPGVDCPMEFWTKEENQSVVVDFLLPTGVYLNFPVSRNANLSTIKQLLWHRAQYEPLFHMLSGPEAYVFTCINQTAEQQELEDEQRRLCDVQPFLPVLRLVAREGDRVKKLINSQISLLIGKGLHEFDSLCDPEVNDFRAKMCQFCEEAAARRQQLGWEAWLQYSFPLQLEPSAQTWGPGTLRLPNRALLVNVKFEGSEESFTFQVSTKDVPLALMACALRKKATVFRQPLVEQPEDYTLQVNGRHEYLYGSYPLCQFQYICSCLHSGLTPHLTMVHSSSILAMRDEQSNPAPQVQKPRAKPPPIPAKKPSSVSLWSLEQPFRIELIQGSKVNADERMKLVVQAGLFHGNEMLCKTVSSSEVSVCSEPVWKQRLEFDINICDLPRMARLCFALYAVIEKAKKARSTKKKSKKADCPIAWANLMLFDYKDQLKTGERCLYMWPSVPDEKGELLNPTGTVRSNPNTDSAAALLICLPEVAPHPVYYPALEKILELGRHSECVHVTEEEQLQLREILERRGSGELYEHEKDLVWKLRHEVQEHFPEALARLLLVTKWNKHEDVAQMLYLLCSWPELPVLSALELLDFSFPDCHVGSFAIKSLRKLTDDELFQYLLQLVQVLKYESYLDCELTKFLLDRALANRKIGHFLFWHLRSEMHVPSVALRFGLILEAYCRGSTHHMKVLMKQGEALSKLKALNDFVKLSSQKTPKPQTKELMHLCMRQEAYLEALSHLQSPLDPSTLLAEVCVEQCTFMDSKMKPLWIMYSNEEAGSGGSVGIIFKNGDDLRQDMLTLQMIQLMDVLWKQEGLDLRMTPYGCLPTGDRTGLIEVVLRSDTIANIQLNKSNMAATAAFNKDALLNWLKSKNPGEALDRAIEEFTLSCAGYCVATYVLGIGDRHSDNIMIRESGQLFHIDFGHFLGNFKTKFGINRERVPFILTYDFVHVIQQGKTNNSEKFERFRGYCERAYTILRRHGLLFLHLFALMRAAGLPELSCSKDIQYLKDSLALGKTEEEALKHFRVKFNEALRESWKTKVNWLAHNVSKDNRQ
PI3Kδ, sequence (P27986 whole entry partner, canonical isoform): as the sequence (P27986 whole entry partner, canonical isoform) above
Procedure: as §1

PI3Kγ, sequence (P48736 whole entry, canonical isoform): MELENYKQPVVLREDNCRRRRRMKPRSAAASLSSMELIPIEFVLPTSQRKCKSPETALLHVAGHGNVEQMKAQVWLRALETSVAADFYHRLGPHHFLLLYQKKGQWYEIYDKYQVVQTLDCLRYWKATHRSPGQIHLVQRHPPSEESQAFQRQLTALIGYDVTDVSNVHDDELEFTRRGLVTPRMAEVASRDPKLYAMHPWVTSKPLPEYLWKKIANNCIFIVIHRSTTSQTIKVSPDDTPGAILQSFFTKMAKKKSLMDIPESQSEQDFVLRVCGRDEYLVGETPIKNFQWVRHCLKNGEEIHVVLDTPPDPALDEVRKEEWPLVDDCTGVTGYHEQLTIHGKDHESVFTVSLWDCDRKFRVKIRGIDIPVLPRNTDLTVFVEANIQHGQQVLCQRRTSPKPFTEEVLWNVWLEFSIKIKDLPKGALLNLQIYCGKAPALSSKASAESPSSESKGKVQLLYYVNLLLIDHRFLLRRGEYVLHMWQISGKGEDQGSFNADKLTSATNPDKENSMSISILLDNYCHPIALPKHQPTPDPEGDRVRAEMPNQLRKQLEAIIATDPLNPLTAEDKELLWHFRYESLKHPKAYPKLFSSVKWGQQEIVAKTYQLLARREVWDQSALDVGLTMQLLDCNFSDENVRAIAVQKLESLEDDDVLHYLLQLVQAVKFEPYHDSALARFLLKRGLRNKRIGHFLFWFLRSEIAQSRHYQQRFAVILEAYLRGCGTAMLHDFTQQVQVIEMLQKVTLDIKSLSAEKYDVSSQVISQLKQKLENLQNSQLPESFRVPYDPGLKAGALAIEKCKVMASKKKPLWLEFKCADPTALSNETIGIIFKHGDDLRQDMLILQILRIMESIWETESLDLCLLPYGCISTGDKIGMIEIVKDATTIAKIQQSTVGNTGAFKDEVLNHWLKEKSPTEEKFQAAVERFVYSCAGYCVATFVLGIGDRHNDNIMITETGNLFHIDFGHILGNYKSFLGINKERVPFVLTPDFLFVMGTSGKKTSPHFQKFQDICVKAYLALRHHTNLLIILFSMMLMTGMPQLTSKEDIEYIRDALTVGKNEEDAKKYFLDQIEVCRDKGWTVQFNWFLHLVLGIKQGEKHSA
PI3Kγ, sequence (Q8WYR1 whole entry partner, canonical isoform): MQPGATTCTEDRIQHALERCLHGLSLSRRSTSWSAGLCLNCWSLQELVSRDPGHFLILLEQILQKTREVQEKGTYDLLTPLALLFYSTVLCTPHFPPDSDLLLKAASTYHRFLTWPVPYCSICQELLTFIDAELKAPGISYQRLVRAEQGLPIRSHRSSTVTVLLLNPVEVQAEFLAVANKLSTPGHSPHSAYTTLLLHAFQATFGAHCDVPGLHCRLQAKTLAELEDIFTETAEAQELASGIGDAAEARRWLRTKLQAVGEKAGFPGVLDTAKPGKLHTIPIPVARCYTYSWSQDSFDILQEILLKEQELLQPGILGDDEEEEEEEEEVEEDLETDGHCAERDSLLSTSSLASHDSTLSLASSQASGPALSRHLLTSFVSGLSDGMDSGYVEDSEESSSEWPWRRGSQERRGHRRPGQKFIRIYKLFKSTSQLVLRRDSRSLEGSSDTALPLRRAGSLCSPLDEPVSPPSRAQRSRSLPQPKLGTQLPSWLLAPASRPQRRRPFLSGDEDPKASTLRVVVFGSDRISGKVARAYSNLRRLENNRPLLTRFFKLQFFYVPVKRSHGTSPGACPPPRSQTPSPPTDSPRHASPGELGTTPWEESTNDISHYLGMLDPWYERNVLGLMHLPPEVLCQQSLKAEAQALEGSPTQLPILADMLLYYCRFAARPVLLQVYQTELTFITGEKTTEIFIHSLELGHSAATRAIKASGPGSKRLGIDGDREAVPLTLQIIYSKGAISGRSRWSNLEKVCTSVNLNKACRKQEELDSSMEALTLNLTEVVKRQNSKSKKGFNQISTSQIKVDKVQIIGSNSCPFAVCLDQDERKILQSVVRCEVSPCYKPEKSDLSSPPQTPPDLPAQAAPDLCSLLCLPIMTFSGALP

Row | IC50 [1] [nM] | IC50 [2] [nM] | IC50 [3] [nM] | SMILES
1 | 8100 | 30 | 13 | C[C@H](Nc1ncnc(N)c1C#N)c1nc2cccc(Cl)c2c(=O)n1-c1cccc(NC(=O)NC(C)(C)C(=O)O)c1 [Compound 139, (S)-2-(3-(3-(2-(1-((6-amino-5-cyanopyrimidin-4-yl)amino)ethyl)-5-chloro-4-oxoquinazolin-3(4H)-yl)phenyl)ureido)-2-methylpropanoic acid]
2 | 5100 | 6 | 5 | C[C@H](Nc1ncnc(N)c1C#N)c1nc2cccc(Cl)c2c(=O)n1-c1cccc(NC(=O)NC(C)(C)CCO)c1 [Compound 140, (S)-1-(3-(2-(1-((6-amino-5-cyanopyrimidin-4-yl)amino)ethyl)-5-chloro-4-oxoquinazolin-3(4H)-yl)phenyl)-3-(4-hydroxy-2-methylbutan-2-yl)urea]
3 | 1600 | 6 | 6 | C[C@H](Nc1ncnc(N)c1C#N)c1nc2cccc(Cl)c2c(=O)n1-c1cccc(NC(=O)NCC(C)(C)CO)c1 [Compound 141, (S)-1-(3-(2-(1-((6-amino-5-cyanopyrimidin-4-yl)amino)ethyl)-5-chloro-4-oxoquinazolin-3(4H)-yl)phenyl)-3-(3-hydroxy-2,2-dimethylpropyl)urea]
4 | 7100 | 12 | 6 | C[C@H](Nc1ncnc(N)c1C#N)c1nc2cccc(Cl)c2c(=O)n1-c1cccc(NC(=O)NCCC(C)(C)O)c1 [Compound 142, (S)-1-(3-(2-(1-((6-amino-5-cyanopyrimidin-4-yl)amino)ethyl)-5-chloro-4-oxoquinazolin-3(4H)-yl)phenyl)-3-(3-hydroxy-3-methylbutyl)urea]
5 | 1500 | 7 | 5 | C[C@H](Nc1ncnc(N)c1C#N)c1nc2cccc(Cl)c2c(=O)n1-c1cccc(NC(=O)Nc2ccccc2OCCO)c1 [Compound 143, (S)-1-(3-(2-(1-((6-amino-5-cyanopyrimidin-4-yl)amino)ethyl)-5-chloro-4-oxoquinazolin-3(4H)-yl)phenyl)-3-(2-(2-hydroxyethoxy)phenyl)urea]
6 | 6500 | 17 | 4 | C[C@H](Nc1ncnc(N)c1C#N)c1nc2cccc(Cl)c2c(=O)n1-c1cccc(NC(=O)Nc2ccccc2S(C)(=O)=O)c1 [Compound 144, (S)-1-(3-(2-(1-((6-amino-5-cyanopyrimidin-4-yl)amino)ethyl)-5-chloro-4-oxoquinazolin-3(4H)-yl)phenyl)-3-(2-(methylsulfonyl)phenyl)urea]
7 | 2200 | 57 | 6 | C[C@H](Oc1ncnc2scnc12)c1nc2cccc(Cl)c2c(=O)n1-c1cccc(NC(=O)NC2CCCC2)c1 [Compound 146, (S)-1-(3-(5-chloro-4-oxo-2-(1-(thiazolo[5,4-d]pyrimidin-7-yloxy)ethyl)quinazolin-3(4H)-yl)phenyl)-3-cyclopentylurea]
8 | 2300 | 16 | 12 | C[C@H](Oc1ncnc2scnc12)c1nc2cccc(Cl)c2c(=O)n1-c1cccc(NC(=O)NC2(C(F)(F)F)CC2)c1 [Compound 147, (S)-1-(3-(5-chloro-4-oxo-2-(1-(thiazolo[5,4-d]pyrimidin-7-yloxy)ethyl)quinazolin-3(4H)-yl)phenyl)-3-(1-(trifluoromethyl)cyclopropyl)urea]
9 | 1800 | 8 | 5 | C[C@H](Oc1ncnc2scnc12)c1nc2cccc(Cl)c2c(=O)n1-c1cccc(NC(=O)NCC(F)F)c1 [Compound 148, (S)-1-(3-(5-chloro-4-oxo-2-(1-(thiazolo[5,4-d]pyrimidin-7-yloxy)ethyl)quinazolin-3(4H)-yl)phenyl)-3-(2,2-difluoroethyl)urea]
10 | 840 | 47 | 5 | C[C@H](Oc1ncnc2scnc12)c1nc2cccc(Cl)c2c(=O)n1-c1cccc(NC(=O)Nc2cc(C(F)(F)F)no2)c1 [Compound 150, (S)-1-(3-(5-chloro-4-oxo-2-(1-(thiazolo[5,4-d]pyrimidin-7-yloxy)ethyl)quinazolin-3(4H)-yl)phenyl)-3-(3-(trifluoromethyl)isoxazol-5-yl)urea]
11 | 1300 | 20 | 4 | CCNC(=O)Nc1cccc(-n2c([C@H](C)Oc3ncnc4scnc34)nc3cccc(Cl)c3c2=O)c1 [Compound 151, (S)-1-(3-(5-chloro-4-oxo-2-(1-(thiazolo[5,4-d]pyrimidin-7-yloxy)ethyl)quinazolin-3(4H)-yl)phenyl)-3-ethylurea]
12 | 2500 | 17 | 10 | C[C@H](Oc1ncnc2scnc12)c1nc2cccc(Cl)c2c(=O)n1-c1cccc(NC(=O)NCC(F)(F)C(F)(F)F)c1 [Compound 152, (S)-1-(3-(5-chloro-4-oxo-2-(1-(thiazolo[5,4-d]pyrimidin-7-yloxy)ethyl)quinazolin-3(4H)-yl)phenyl)-3-(2,2,3,3,3-pentafluoropropyl)urea]
13 | 1600 | 48 | 4 | CONC(=O)Nc1cccc(-n2c([C@H](C)Oc3ncnc4scnc34)nc3cccc(Cl)c3c2=O)c1 [Compound 153, (S)-1-(3-(5-chloro-4-oxo-2-(1-(thiazolo[5,4-d]pyrimidin-7-yloxy)ethyl)quinazolin-3(4H)-yl)phenyl)-3-methoxyurea]
14 | 1400 | 4 | 5 | CC(Oc1ncnc2scnc12)c1nc2cccc(Cl)c2c(=O)n1-c1cccc(NC(=O)NCC(F)(F)F)c1 (stereo not drawn) [Compound 154, 1-(3-(5-chloro-4-oxo-2-(1-(thiazolo[5,4-d]pyrimidin-7-yloxy)ethyl)quinazolin-3(4H)-yl)phenyl)-3-(2,2,2-trifluoroethyl)urea]
15 | 930 | 41 | 2 | CC(Oc1ncnc2scnc12)c1nc2cccc(Cl)c2c(=O)n1-c1cccc(NC(=O)Nc2ccccc2Cl)c1 (stereo not drawn) [Compound 156, 1-(3-(5-chloro-4-oxo-2-(1-(thiazolo[5,4-d]pyrimidin-7-yloxy)ethyl)quinazolin-3(4H)-yl)phenyl)-3-(2-chlorophenyl)urea]
16 | 3100 | 25 | 7 | C[C@H](Oc1ncnc2scnc12)c1nc2cccc(Cl)c2c(=O)n1-c1cccc(NC(=O)NCC2OCCO2)c1 [Compound 157, (S)-1-((1,3-dioxolan-2-yl)methyl)-3-(3-(5-chloro-4-oxo-2-(1-(thiazolo[5,4-d]pyrimidin-7-yloxy)ethyl)quinazolin-3(4H)-yl)phenyl)urea]
17 | 900 | 9 | 4 | C[C@H](Oc1ncnc2scnc12)c1nc2cccc(Cl)c2c(=O)n1-c1cccc(NC(=O)NCCO)c1 [Compound 158, (S)-1-(3-(5-chloro-4-oxo-2-(1-(thiazolo[5,4-d]pyrimidin-7-yloxy)ethyl)quinazolin-3(4H)-yl)phenyl)-3-(2-hydroxyethyl)urea]
18 | 5600 | 42 | 33 | N#Cc1c(N)ncnc1N1CCC[C@H]1c1nc2cccc(Cl)c2c(=O)n1-c1cccc(NC(=O)NCC(F)(F)F)c1 [Compound 159, (S)-1-(3-(2-(1-(6-amino-5-cyanopyrimidin-4-yl)pyrrolidin-2-yl)-5-chloro-4-oxoquinazolin-3(4H)-yl)phenyl)-3-(2,2,2-trifluoroethyl)urea]
19 | > 10000 | 2400 | 66 | NC(=O)c1cc(F)cc(-n2c([C@@H](Nc3ncnc(N)c3Cl)C3CC3)nc3cccc(Cl)c3c2=O)c1 [Compound 160, (S)-3-(2-(((6-amino-5-chloropyrimidin-4-yl)amino)(cyclopropyl)methyl)-5-chloro-4-oxoquinazolin-3(4H)-yl)-5-fluorobenzamide]
20 | 70 | 2 | 1 | N#Cc1c(N)nc(N)nc1N[C@H](c1nc2cccc(Cl)c2c(=O)n1-c1cc(F)cc(C(N)=O)c1)C1CC1 [Compound 161, (S)-3-(5-chloro-2-(cyclopropyl((2,6-diamino-5-cyanopyrimidin-4-yl)amino)methyl)-4-oxoquinazolin-3(4H)-yl)-5-fluorobenzamide]
21 | 2600 | 21 | 1 | NC(=O)c1cc(F)cc(-n2c([C@@H](Nc3nc(N)nc(N)c3Cl)C3CC3)nc3cccc(Cl)c3c2=O)c1 [Compound 162, (S)-3-(5-chloro-2-(cyclopropyl((2,6-diamino-5-chloropyrimidin-4-yl)amino)methyl)-4-oxoquinazolin-3(4H)-yl)-5-fluorobenzamide]
22 | 8200 | 11 | 2 | NC(=O)c1cncc(-n2c([C@@H](Nc3nc(N)nc(N)c3Cl)C3CC3)nc3cccc(Cl)c3c2=O)c1 [Compound 163, (S)-5-(5-chloro-2-(cyclopropyl((2,6-diamino-5-chloropyrimidin-4-yl)amino)methyl)-4-oxoquinazolin-3(4H)-yl)nicotinamide]
23 | 420 | 2 | 1 | N#Cc1c(N)nc(N)nc1N[C@H](c1nc2cccc(Cl)c2c(=O)n1-c1cncc(C(N)=O)c1)C1CC1 [Compound 164, (S)-5-(5-chloro-2-(cyclopropyl((2,6-diamino-5-cyanopyrimidin-4-yl)amino)methyl)-4-oxoquinazolin-3(4H)-yl)nicotinamide]
